According to US11752155B2, “Treatment of autism spectrum disorders, obsessive-compulsive disorder and anxiety disorders” (Rugen Holdings (Cayman) Limited, priority 2016, dated 2023):
Entries after “also recorded” stand apart in the source; their conditions may differ. Read-outs that look alike come from different tables or passages of the source.

How the values were obtained:
[1] = system: wild type mice (male NMRI); assay: Marble Burying Test in wild type mice; assay type: in vivo, mouse
Method in brief: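 Male NMRI mice, 12 per group, received compound in 0.5% DMSO/4% HP-β-CD PO or IP 20 min before test. Marbles (25) buried two-thirds or more in sawdust were counted over a blind 30-min session. Groups were compared with vehicle by Kruskal-Wallis then Mann-Whitney U.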

Sapap3 knockout mice = assay: Grooming Test in Sapap3 knockout mice; assay type: in vivo, mouse; settings: for tachyphylaxis with repeated weekly dosing: dosed IP on Days 1, 15, 22, 29; for acute effect on excessive self-grooming: single IP dose, Day 1
Experimental: Animals. The breeding conditions and genotyping methods for Sapap3 and Shank3 complete knockout mice were the same as described in Welch et al. (Nature 2007, 448(7156):894-900) and in Wang et al. (Nat. Commun. 2016, 7:11459), respectively. Homozygous knockout mice and littermate wild type mice of both genders were used at 4 to 8 weeks of age.
Compound formulation. The test compounds were dissolved in a small volume of dimethyl sulfoxide (DMSO) and diluted in an aqueous solution of 2-hydroxypropyl-beta-cyclodextrin (HP-β-CD) and administered IP. Dosing volume was 10 mL/kg. At 20 minutes after dosing, the mice were subjected to the behavioral test as described below.
Testing room and apparatus. The test room was maintained under the same conditions as the colony rooms, except the mice were housed in conventional shoe-box cages with food, water, and nesting materials. Animals were housed in the test room 48-72 hours prior to testing, in order to permit the mice to fully acclimate to the test room and conventional housing cages before testing. Tests were conducted in white polyvinyl-fluoride hard-sided foam test arenas (20×20×12 cm). The arenas were indirectly illuminated by dimmable LED light bars placed level with the arena floor and 30 cm away from the external wall of the test arena. This permitted the internal area of the arena to be evenly illuminated at approximately 40 lux. The illumination levels where the mice were housed before testing were about 80-100 lux.
Testing procedure. Mice were carefully placed into the test arenas 20 minutes after compound administration. Animals were given free exploration of the arena for 10 minutes, after which they were gently sprayed with 4 quick pumps of a water mist (total water volume approximated 1.5-1.7 mL). Mice were then allowed an additional 10 minutes to self-groom and engage in other behaviors before being removed from the arena. All tests were videotaped using cameras mounted above the testing arena and were saved to digital media format using Noldus Media Player software (Noldus Information Technologies, Leesburg, Va.). The mice were only tested once in the acute studies and were repeatedly tested in the sustained effect studies.
Quantitation of grooming bouts. Analyses of the video recordings were conducted with TopScan behavioral recognition software (Cleversys Inc, Reston, Va.). Configurations were made which scored time spent in grooming. […] These settings permitted automated scoring of grooming by TopScan that corresponded well to manual-scoring of these behaviors by a trained blinded observer using Noldus Observer XT9 (Noldus Information Technologies), with an average corrected kappa of 0.925 (range 0.807-0.983).
Statistical analyses. Data are presented as means and standard error of the means (SEMs). Analyses were conducted using SPSS 23 (IBM SPSS Statistics, Chicago, Ill.). Time spent in grooming behavior (seconds) over the 10-minute pre- and post-spray time blocks were analyzed with repeated measures analyses of variance (RMANOVA). The pre- and post-spray times were used for the within subject effects and the genotype and compound treatment condition were used as the between subject effects. In sustained effect studies, days were also used for a within subject effect. Some analyses of total groom time were performed in Prism 7.01 (GraphPad Software, La Jolla, Calif.), with one-way ANOVAs to compare genotypes on Day 1 or with RMANOVAs to compare treatment groups within the same genotype across days. Treatments with compounds were compared independently with the vehicle. All post-hoc comparisons were performed with Bonferroni corrections for multiple comparisons to avoid a Type I error. In all cases, a p<0.05 was considered significant.
Next, the effect of two subunit-selective NR2B antagonists administered as a single IP dose and assessed 20 minutes postdose was studied in the Sapap3 knockout mice (n=6-10 mice per treatment group). […]

CYP2D6 = CYP2D6 (Homo sapiens (Human), UniProt P10635); assay: CYP P450 enzyme inhibition in pooled human liver microsomes (dextromethorphan probe); assay type: in vitro ADME; settings: for inhibition at 10 min, 10 µM: human, pooled human liver microsomes, pH 7.4, probe dextromethorphan, 5 μM, read-out: CYP2D6 Inhibiton at 10 μM
Experimental: Test compound concentration-dependent response studies were performed in triplicate.

[2] = Mus musculus, ip, read-out: Percent Change in marbles buried relative to vehicle
[3] = Mus musculus, po, read-out: Percent Change in marbles buried relative to vehicle
[4] = single dose 1 mg/kg IP on Day 1

CYP2D6, sequence (P10635 whole entry): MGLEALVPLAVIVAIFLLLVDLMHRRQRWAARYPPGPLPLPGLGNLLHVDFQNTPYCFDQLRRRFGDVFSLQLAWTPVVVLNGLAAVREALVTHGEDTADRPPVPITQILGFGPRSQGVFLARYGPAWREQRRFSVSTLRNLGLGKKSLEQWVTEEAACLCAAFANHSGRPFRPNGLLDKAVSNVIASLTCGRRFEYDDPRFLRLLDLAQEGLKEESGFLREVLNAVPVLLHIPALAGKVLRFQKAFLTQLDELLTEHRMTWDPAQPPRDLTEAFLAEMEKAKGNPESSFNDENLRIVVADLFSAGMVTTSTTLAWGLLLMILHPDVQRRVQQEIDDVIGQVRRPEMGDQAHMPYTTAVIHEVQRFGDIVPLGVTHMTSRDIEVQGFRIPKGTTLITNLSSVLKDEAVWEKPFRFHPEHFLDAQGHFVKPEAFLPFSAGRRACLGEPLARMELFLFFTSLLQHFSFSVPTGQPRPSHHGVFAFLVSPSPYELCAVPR

| SMILES | change in vivo at 0.316 mg/kg [1, 2] [%] | change in vivo at 3 mg/kg [1, 2] [%] | change in vivo at 10 mg/kg [1, 2] [%] | change in vivo at 1 mg/kg [1, 3] [%] | change in vivo at 3 mg/kg [1, 3] [%] | change in vivo at 10 mg/kg [1, 3] [%] | tachyphylaxis with repeated weekly dosing (Sapap3 knockout mice) | significantly reduced grooming through Day (Sapap3 knockout mice; first dose 3 mg/kg IP on Day 1) [days] | acute effect on excessive self-grooming (Sapap3 knockout mice; 20 min postdose) | significantly reduced grooming through Day (Sapap3 knockout mice; [4]) [days] | inhibition at 10 min, 10 µM (CYP2D6) [%] | further results |
| --- | --- | --- | --- | --- | --- | --- | --- | --- | --- | --- | --- | --- |
| FC(F)c1ccc(C(F)(F)CN2CCC(Nc3ncnc4[nH]ccc34)CC2)cc1 [C-179^A′] | 9 | -96 | -94 | -1.1 | -81 | -99 | no tachyphylaxis developed; also recorded: tachyphylaxis was not observed | 8 | significantly reduced grooming; also recorded: markedly reduced excessive self-grooming | 5 | – | change in vivo at 1.78 mg/kg ([1]; Mus musculus, po, 1.78 mg/kg, read-out: Percent Change in marbles buried relative to vehicle): -81%; magnitude of the reduction in self-grooming (Sapap3 knockout mice; 1 mg/kg IP, pre-spray): 43.6%; magnitude of the reduction in self-grooming (Sapap3 knockout mice; 3 mg/kg IP, pre-spray): 80.5%; magnitude of the reduction in self-grooming (Sapap3 knockout mice; 10 mg/kg IP, pre-spray): 91.7%; reductions in self-grooming (Sapap3 knockout mice; 1, 3 and 10 mg/kg IP, post-spray): 66.9% to 77.6%; significantly reduced grooming through Day (Sapap3 knockout mice; single dose 0.32 mg/kg IP on Day 1): 5 days; significantly reduced grooming through Day (Sapap3 knockout mice; single dose 0.56 mg/kg IP on Day 1): 5 days; sustained efficacy lasting for (Sapap3 knockout mice; single dose of 3 mg/kg IP): 1 week |
| Cc1ccc(COC(=O)N2CC[C@H](CNc3nccn4cnnc34)C(F)(F)C2)cc1 [E1-1.2^B′] | – | – | – | – | – | – | – | – | markedly reduced excessive self-grooming | – | 14 | magnitude of the reduction in self-grooming (Sapap3 knockout mice; 3 mg/kg IP, 20 min postdose, pre- and post-spray): 70%-80%; magnitude of the reduction in self-grooming (Sapap3 knockout mice; 10 mg/kg IP, 20 min postdose, pre- and post-spray): > 90%; magnitude of the reduction in self-grooming (Sapap3 knockout mice; 30 mg/kg IP, 20 min postdose, pre- and post-spray): > 90% |
| Cc1ccc(COC(=O)N2CC[C@H](CNc3cnc(C)cn3)C(F)(F)C2)cc1 [E1-21.26^B′] | -14 | -97 | -96 | 8 | -41 | -78 | without tachyphylaxis | 5 | significantly reduced grooming | – | 32 | effects lasting through Day after the fourth and final dose on Day 29 (Sapap3 knockout mice; 3 mg/kg IP on Days 1, 15, 22, 29): 40 days; effects lasting through Day after the fourth and final dose on Day 29 (Sapap3 knockout mice; 10 mg/kg IP on Days 1, 15, 22, 29): 43 days; significant reduction in grooming wore off by Day (Sapap3 knockout mice; first dose of 3 mg/kg IP): 8 days |
| Cc1ccc(COC(=O)N2CC[C@H](CNc3ncccn3)C(F)(F)C2)cc1 [E1-22.2^B′] | -68 | -93 | -97 | – | -88 | -99 | – | 22 | significantly reduced grooming | 19 | – | change in vivo at 0.03 mg/kg ([1]; Mus musculus, ip, 0.03 mg/kg, read-out: Percent Change in marbles buried relative to vehicle): -9%; change in vivo at 0.1 mg/kg [1, 2]: -13%; change in vivo at 0.3 mg/kg [1, 2]: -92%; change in vivo at 0.1 mg/kg [1, 3]: 14%; change in vivo at 0.3 mg/kg [1, 3]: 16%; efficacy in the Marble Burying Test ([1]; lowest test concentration of 1 mg/kg, IP): fully efficacious; IC50 (CYP2D6; Table 1.4B): > 50 µM |
